Experimental data as given in paper PMC10383271.

Tests used:
[1] = target: T1, human serum albumin (HSA) (Homo sapiens, UniProt P02768); assay: Circular dichroism spectroscopy of HSA, secondary structure; set-up: purchased Sigma-Aldrich Chemie GmbH
Method: When the small molecules interact with plasma proteins, changes in circular dichroism spectra are observed. Specific secondary structures such as α-helix or β-sheet have a characteristic band on the spectrum. For the first structure, two negative peaks near 209 and 220 nm are observed, while for the β-sheet, the negative band around 215 nm is present.
Circular dichroism (CD) spectra were measured on the Jasco J-1500 magnetic circular dichroism spectrometer (JASCO International CO., Tokyo, Japan) at room temperature with a 10 mm path length. […] The spectra were measured in the range of 205–250 nm at a scan rate speed of 50 nm/min, with a response time of 1 s. […] They were respectively added into 3 mL of protein solution successive portions of the solutions of the analyzed compounds. The analysis of the obtained results was performed using the CD Multivariate Calibration Creation and CD Multivariate SSE programs (JASCO International CO., Tokyo, Japan). Protein concentrations were converted here for mean residue molar concentrations.

[2] = system: alpha-1-acid glycoprotein (AAG); assay: Fluorescence quenching titration of AAG
Method: (§1) Aex is the absorbance at excitation wavelengths, and Aem is the absorbance at emission wavelengths.
(§2) The correlation between the stability constant of complexes Kb and standard thermodynamic parameters enthalpy change (ΔH°), and entropy change (ΔS°) was determined by the van’t Hoff Equation (4):(4) logKb=−∆H^°/RT+∆S^°/R where R is the universal gas constant; the free energy change (ΔG°) can be calculated by following Equation (5):(5) ∆G^°=∆H^°−T∆S^°=−RTlnKb
(§3) The fluorescence study was performed on a Cary Eclipse 500 spectrophotometer (Agilent, Santa Clara, CA, USA). The spectra were recorded in a cuvette with 10 mm path length at an emission range of 300–500 nm, and the excitation wavelength was 280 nm.

[3] = target: T2, 15-LOX (Glycine max, UniProt P08170); assay: 15-LOX inhibition, Cayman's Lipoxygenase Inhibitor Screening Assay Kit
T2 sequence (P08170 1-839): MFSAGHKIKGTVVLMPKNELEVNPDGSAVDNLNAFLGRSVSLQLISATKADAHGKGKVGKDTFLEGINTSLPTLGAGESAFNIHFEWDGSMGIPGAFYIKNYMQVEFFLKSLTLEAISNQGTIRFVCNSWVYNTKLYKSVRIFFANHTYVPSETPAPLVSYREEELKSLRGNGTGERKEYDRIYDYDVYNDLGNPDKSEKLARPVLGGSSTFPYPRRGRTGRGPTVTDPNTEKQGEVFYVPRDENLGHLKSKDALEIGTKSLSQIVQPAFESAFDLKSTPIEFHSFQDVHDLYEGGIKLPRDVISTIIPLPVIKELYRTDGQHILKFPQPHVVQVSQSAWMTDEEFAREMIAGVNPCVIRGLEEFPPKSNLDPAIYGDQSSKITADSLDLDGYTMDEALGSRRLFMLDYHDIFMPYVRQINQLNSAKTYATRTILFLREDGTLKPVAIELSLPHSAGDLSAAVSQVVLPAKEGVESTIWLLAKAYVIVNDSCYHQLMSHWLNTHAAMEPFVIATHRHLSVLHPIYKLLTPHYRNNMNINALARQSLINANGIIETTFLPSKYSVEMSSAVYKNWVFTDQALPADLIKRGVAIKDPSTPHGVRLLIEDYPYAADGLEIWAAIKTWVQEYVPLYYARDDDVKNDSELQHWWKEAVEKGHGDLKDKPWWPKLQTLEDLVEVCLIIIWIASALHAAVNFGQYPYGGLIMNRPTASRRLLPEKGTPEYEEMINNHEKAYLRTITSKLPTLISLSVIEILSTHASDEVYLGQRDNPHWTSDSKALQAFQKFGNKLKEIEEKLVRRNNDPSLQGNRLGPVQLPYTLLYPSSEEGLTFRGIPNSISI

[4] = target: T1, human serum albumin (HSA); assay: Fluorescence quenching titration of HSA; conditions: for Kd: logKb
Method: as §1, §2, §3

T1 sequence (P02768 25-609): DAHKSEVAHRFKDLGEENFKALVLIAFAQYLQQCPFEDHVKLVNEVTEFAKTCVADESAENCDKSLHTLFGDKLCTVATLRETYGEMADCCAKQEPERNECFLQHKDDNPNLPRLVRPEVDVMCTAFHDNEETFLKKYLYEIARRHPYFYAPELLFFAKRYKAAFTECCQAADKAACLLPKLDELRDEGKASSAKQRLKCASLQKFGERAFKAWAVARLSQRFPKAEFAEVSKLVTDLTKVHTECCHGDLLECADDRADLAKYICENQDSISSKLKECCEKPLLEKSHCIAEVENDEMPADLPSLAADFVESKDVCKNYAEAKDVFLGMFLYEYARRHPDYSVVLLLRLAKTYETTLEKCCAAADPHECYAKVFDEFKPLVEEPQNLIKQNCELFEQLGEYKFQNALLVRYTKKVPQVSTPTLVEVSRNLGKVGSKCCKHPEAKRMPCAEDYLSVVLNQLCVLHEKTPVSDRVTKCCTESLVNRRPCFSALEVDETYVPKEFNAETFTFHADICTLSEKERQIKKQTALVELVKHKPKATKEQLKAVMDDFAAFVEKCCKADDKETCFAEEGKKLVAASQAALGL

Question: Which results are given for `CCCCn1c(C)c2c(OCC(=O)N/N=C/c3ccccc3)nn(C)c(=O)c2c1C` [Compound 5a, N-[(Z/E)-benzylideneamino]-2-(6-butyl-3,5,7-trimethyl-4-oxo-pyrrolo[3,4-d]pyridazin-1-yl)oxy-acetamide]?
Answer: Change in % α-helix, (1:5) minus (1:0) ([1]; HSA): −2.0%; % Other ([1]; HSA:compound molar ratio 1:0.5): 20.7%; % α-Helix ([1]; HSA:compound molar ratio 1:0.5): 67.3%; % β-Sheet ([1]; HSA:compound molar ratio 1:0.5): 2.8%; % β-Turn ([1]; HSA:compound molar ratio 1:0.5): 9.2%; % Other ([1]; HSA:compound molar ratio 1:1): 20.9%; % α-Helix ([1]; HSA:compound molar ratio 1:1): 66.9%; % β-Sheet ([1]; HSA:compound molar ratio 1:1): 2.8%; % β-Turn ([1]; HSA:compound molar ratio 1:1): 9.3%; % Other ([1]; HSA:compound molar ratio 1:2): 21.5%; % α-Helix ([1]; HSA:compound molar ratio 1:2): 66.3%; % β-Sheet ([1]; HSA:compound molar ratio 1:2): 2.7%; % β-Turn ([1]; HSA:compound molar ratio 1:2): 9.4%; % Other ([1]; HSA:compound molar ratio 1:3): 21.6%; % α-Helix ([1]; HSA:compound molar ratio 1:3): 66.2%; % β-Sheet ([1]; HSA:compound molar ratio 1:3): 2.8%; % β-Turn ([1]; HSA:compound molar ratio 1:3): 9.5%; % Other ([1]; HSA:compound molar ratio 1:5): 20.3%; % α-Helix ([1]; HSA:compound molar ratio 1:5): 66.1%; % β-Sheet ([1]; HSA:compound molar ratio 1:5): 4.3%; % β-Turn ([1]; HSA:compound molar ratio 1:5): 9.3%; melting point: 210 to 212 °C; Ksv ([2]; T 297 K): 9.04 ± 0.16 ·10^4 dm^3·mol^−1; kq ([2]; T 297 K): 9.04 ·10^12 dm^3·mol^−1·s^−1; logKb ([2]; T 297 K): 1.82 ± 0.12; Ksv ([2]; T 303 K): 3.15 ± 0.41 ·10^4 dm^3·mol^−1; kq ([2]; T 303 K): 3.15 ·10^12 dm^3·mol^−1·s^−1; logKb ([2]; T 303 K): 1.73 ± 0.27; Ksv ([2]; T 308 K): 1.11 ± 0.16 ·10^4 dm^3·mol^−1; kq ([2]; T 308 K): 1.11 ·10^12 dm^3·mol^−1·s^−1; logKb ([2]; T 308 K): 1.62 ± 0.26; IC50 [3]: 12.9 ± 0.06 µM; Ksv ([4]; T 297 K): 1.87 ± 0.04 × 10^5 dm^3·mol^−1; kq ([4]; T 297 K): 1.87 × 10^13 dm^3·mol^−1·s^−1; n (number of binding sites) ([4]; T 297 K): 0.97 ± 0.04; Ksv ([4]; T 303 K): 1.71 ± 0.03 × 10^5 dm^3·mol^−1; kq ([4]; T 303 K): 1.71 × 10^13 dm^3·mol^−1·s^−1; n (number of binding sites) ([4]; T 303 K): 0.95 ± 0.02; Ksv ([4]; T 308 K): 1.41 ± 0.03 × 10^5 dm^3·mol^−1; kq ([4]; T 308 K): 1.41 × 10^13 dm^3·mol^−1·s^−1; n (number of binding sites) ([4]; T 308 K): 0.92 ± 0.02; Kd ([4]; T 297 K): 7.94 µM; Kd ([4]; T 303 K): 11.2 µM; Kd ([4]; T 308 K): 20.9 µM; ΔG° ([4]; one value per compound, temperature not given): -29.20 kJ/mol; ΔH° ([4]; van't Hoff): -67.55 kJ/mol; ΔS° ([4]; van't Hoff): −129.11 J·mol^−1·K^−1
